Entries after “also recorded” stand apart in the source; their conditions may differ.
Tests used:
[1] = test system: cytoplasmic calcium; assay: Cytoplasmic calcium by Fluo-4 fluorescence in FRT cells; assay type: cell-based, rat; settings: 10 μM; for inhibition of the ATP-stimulated elevation in cytoplasmic calcium: 100 μM ATP
Protocol: cAMP and Ca^2+ assays. FRT cells expressing wildtype CFTR were cultured in 12-well plates. After washing with PBS, cells were incubated for 10 min with compounds in the absence or presence of 90 nM forskolin and then lysed. Lysates were assayed for cAMP content using a cAMP immunoassay kit (Parameter cAMP Immunoassay Kit, R&D Systems, Minneapolis, Minn.). For cytoplasmic calcium measurements, FRT cells in 96-well black-walled microplates were loaded with Fluo-4 NW (Invitrogen, Carlsbad, Calif.) and Fluo-4 fluorescence was measured with a plate reader equipped with syringe pumps and monochromators.

[2] = biological target: T1, TMEM16A (Homo sapiens, UniProt Q5XXA6); assay: TMEM16A plate reader assay in FRT cells expressing YFP and TMEM16A; assay type: cell-based; settings: 10 μM
T1 construct: expressed in transfected cells; host or cells: Fischer rat thyroid (FRT) cells stably co-expressing YFP-H148Q
T1 sequence (Q5XXA6 1-986): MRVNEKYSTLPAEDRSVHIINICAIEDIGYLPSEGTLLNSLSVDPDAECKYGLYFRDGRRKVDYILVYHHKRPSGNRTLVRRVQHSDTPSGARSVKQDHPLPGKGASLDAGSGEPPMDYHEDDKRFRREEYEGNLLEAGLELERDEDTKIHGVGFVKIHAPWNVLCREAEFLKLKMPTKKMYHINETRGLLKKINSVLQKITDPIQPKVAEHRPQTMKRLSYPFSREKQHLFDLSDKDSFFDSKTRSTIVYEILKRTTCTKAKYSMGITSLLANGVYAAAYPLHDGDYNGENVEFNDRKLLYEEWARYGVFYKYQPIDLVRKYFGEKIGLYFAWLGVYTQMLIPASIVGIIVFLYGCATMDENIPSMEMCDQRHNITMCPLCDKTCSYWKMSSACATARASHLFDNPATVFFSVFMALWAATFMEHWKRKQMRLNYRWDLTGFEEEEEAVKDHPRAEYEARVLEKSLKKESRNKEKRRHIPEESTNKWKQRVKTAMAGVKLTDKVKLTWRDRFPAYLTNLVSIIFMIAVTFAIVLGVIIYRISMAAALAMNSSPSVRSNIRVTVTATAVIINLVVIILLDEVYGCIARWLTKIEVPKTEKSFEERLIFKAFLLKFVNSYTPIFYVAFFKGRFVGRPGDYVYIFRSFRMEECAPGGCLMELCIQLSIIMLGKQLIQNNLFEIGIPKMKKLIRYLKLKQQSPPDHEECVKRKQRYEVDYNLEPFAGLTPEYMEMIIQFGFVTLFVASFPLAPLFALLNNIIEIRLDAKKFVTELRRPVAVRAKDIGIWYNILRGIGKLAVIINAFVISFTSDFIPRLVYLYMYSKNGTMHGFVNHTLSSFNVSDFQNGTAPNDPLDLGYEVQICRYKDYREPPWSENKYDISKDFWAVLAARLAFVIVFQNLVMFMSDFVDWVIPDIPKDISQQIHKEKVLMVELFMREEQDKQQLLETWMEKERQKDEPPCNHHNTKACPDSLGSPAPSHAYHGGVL
Protocol: Platereader assays of chloride channel function. CFTR activity was assayed as described. FRT cells co-expressing YFP and wildtype CFTR were washed with phosphate-buffered saline (PBS) and then incubated for 10 min with test compounds in PBS containing 125 nM forskolin. I^− influx was measured in a plate reader with initial baseline read for 2 s and then for 12 s after rapid addition of an I^−-containing solution. TMEM16A activity was assayed similarly as described using FRT cells co-expressing YFP and TMEM16A. Activity of non-TMEM16A CaCC was assayed as described in HT-29 cells expressing YFP. In each assay initial rates of I^− influx were computed as a linear measure of channel function.

[3] = test system: mice; assay: Ocular toxicity after chronic topical dosing (slit-lamp, lissamine green staining); assay type: in vivo; settings: two weeks, three times per day topical
Protocol: (§1) To assess corneal epithelial disruption, 5 μL of lissamine green (LG) dye (1%) was applied to the ocular surface of isofluorane-anesthetized mice. Photographs of the eye were taken using a Nikon Digital camera adapted to an Olympus Zoom Stereo Microscope (Olympus, Center Valley, Pa., USA). Each corneal quadrant was scored on a 3-point scale by one blinded, trained observer, with the extent of staining in each quadrant classified as: 0, no staining; 1, sporadic (involving <25% of the total surface) staining; grade 2, diffuse punctate staining (25-75%); and grade 3, coalesced punctate staining (≥75%). The total grade is reported as the sum of scores from all four quadrants, ranging from 0 to 12.
as §1, with “Lissamine green staining. To” for “To”

SMILES	increase of cytoplasmic calcium [1]	inhibition of the ATP-stimulated elevation in cytoplasmic calcium [1]	effect on calcium-activated chloride channels in TMEM16A-expressing FRT cells [2]	LG staining after chronic dosing [3]	ocular toxicity (slit-lamp: conjunctival hyperemia, anterior chamber inflammation, lens clarity) [3]
CNc1nc(Nc2ccccc2)nc(OCC(F)(F)C(F)F)n1 [compound 12, N-methyl-N′-phenyl-6-(2,2,3,3-tetrafluoropropoxy)-1,3,5-triazine-2,4-diamine]	without causing cAMP or calcium elevation; also recorded: did not	did not	no inhibition; also recorded: neither inhibited nor activated	–	–
CCN(CC)c1nc(Nc2ccc3ncsc3c2)nc(OC(C(F)(F)F)C(F)(F)F)n1 [6k, N′-(1,3-Benzothiazol-6-yl)-N,N-diethyl-6-[(1,1,1,3,3,3-hexafluoropropan-2-yl)oxy]-1,3,5-triazine-2,4-diamine]	did not	did not	no inhibition; also recorded: neither inhibited nor activated	–	–
Nc1ccc([N+](=O)[O-])cc1-c1nc2ccccc2n(Cc2ccccc2)c1=O [CFTRact-J027, 3-(2-amino-5-nitrophenyl)-1-benzylquinoxalin-2(1H)-one]	–	–	–	no corneal or conjunctival epithelial disruption	no signs of ocular toxicity
CCN(CC)c1nc(Nc2ccccc2)nc(OC(C(F)(F)F)C(F)(F)F)n1 [CFTRact-K089, N,N-Diethyl-6-[(1,1,1,3,3,3-hexafluoropropan-2-yl)oxy]-N′-phenyl-1,3,5-triazine-2,4-diamine]	–	–	–	no corneal or conjunctival epithelial disruption	no signs of ocular toxicity
